# In patent publication US20250154201A1, “PEPTIDE BINDING TO MESOTHELIN, AND USE THEREOF” (KYUNGPOOK NATIONAL UNIVERSITY INDUSTRY-ACADEMIC COOPERATION …, priority 2022, published 2025):
# Columns and labels:
# [1] = molecular target: T1, mesothelin (Homo sapiens, UniProt Q13421); experiment: immunofluorescence binding to HEK-293T cells transiently transfected with mesothelin-GFP plasmid; format: cell-based; set-up: GFP; host or cells: HEK293T; details: 10 μM and 25 μM MSLN-pep, 25 μM Ctrl-pep; transfected and untransfected HEK-293T
# Protocol: HEK293T cells were transiently transfected using Lipofectamine 3000 (Invitrogen) in 6-well plates according to the manufacturer's protocol. Prior to transfection, 2×10^5 cells were cultured in 6-well plates for 24 hours. To transfect one well, 7.5 μl of Lipofectamine 3000 reagent was diluted in 250 μl of Opti-MEM (Invitrogen) reagent, followed by a reaction at room temperature for 5 minutes. 5 μg of mesothelin-expressing plasmid pCMV6-AC-GFP vector DNA was diluted in 250 μl of Opti-MEM (Invitrogen) reagent, followed by a reaction at room temperature for 5 minutes. The mixture of two solutions were then mixed and reacted at room temperature for 10 minutes (a total of 500 μl per well). The old medium of the cells was immediately removed, and a 500 μl of DNA-transfection reagent-mixture was added to the cells before transfer to the incubator. After 24 hours of culture, the medium was again replaced with a pre-warmed growth medium containing serum. Culture was performed for 48 hours, and the newly inserted protein was expressed in the cells.
# (§1) Taken together, it was found via immunofluorescence analysis that MSLN-pep specifically binds to mesothelin.
# Target sequence in this assay (Q13421 with tags, fused parts or gaps): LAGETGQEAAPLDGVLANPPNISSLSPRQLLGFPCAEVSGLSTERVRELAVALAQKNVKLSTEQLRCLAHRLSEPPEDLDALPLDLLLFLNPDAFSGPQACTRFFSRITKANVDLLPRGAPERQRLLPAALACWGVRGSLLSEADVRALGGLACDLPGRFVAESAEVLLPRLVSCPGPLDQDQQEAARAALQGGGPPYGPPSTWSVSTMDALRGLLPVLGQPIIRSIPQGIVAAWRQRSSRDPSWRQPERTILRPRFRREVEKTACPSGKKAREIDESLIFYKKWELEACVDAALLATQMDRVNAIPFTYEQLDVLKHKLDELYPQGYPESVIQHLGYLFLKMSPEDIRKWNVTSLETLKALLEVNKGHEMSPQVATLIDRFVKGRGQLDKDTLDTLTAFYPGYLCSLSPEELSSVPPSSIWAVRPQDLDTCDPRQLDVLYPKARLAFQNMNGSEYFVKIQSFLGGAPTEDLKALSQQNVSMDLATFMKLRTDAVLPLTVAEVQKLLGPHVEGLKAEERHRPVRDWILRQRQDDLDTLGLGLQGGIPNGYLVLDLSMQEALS
# [2] = molecular target: T1, mesothelin; experiment: co-localization of TAMRA-labeled MSLN-pep with mesothelin antibody (confocal microscopy); format: cell-based; set-up: endogenous in cells; details: AsPC-1, PANC-1, BxPC-3
# Protocol: Pancreatic cancer cell lines AsPC-1, PANC-1, and BxPC-3 were cultured in a 4-well chamber and then treated with mesothelin antibodies to determine the location where mesothelin is expressed.
# Target sequence in this assay (Q13421 with tags, fused parts or gaps limits assumed): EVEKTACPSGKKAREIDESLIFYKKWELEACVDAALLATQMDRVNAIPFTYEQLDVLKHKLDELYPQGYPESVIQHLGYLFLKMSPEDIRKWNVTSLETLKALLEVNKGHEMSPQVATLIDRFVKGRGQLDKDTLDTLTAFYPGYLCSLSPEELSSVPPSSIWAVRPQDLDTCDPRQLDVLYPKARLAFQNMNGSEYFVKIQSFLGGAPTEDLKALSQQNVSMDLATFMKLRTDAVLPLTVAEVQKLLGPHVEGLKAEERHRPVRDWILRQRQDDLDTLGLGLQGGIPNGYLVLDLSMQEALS
# [3] = molecular target: T1, mesothelin; experiment: phage-binding ELISA and phage immunofluorescence staining of phage clones; set-up: GFP; host or cells: HEK293T; details: phage clone, compared to other phage clones
# Source text: A phage peptide library based on the T7 415-1b phage vector, represented by CX7C (C, cysteine; X, any amino acid residue) was designed according to the manufacturer's instructions (Novagen, Madison, WI). The phage library has approximately 1×10^9 plaque-forming unit (pfu). In other words, HEK-293T cells transfected with a mesothelin-expressing plasmid pCMV6-AC-GFP vector were dispensed in a 35 mm dish and cultured to meet a confluency of 60-70%. For transient transfection of HEK-293T cells, the cells were treated with Lipofectamine 3000 (Invitrogen) and cultured for 48 hours. First, phage libraries with 1×109 plaque-forming unit (pfu) were cultured in untransfected HEK-293T cells at 4° C. for 30 minutes. […] The eluate was used for titration, the remaining eluted phage clones were lysed in 10 ml of LB medium for amplification for the next cycle, and the process was repeated 5 times. […]
# To screen peptides specifically binding to mesothelin, the present inventors first prepared HEK-293T cells transiently transfected with a mesothelin-GFP plasmid. […] As a result of observing mesothelin-GFP expression via immunofluorescence analysis, transfection was detected at each time point compared to untransfected HEK-293T cells (FIG. 2A). […]
# Target sequence in this assay (Q13421 with tags, fused parts or gaps): as the sequence (Q13421 with tags, fused parts or gaps) above
# [4] = tested on: mesothelin-expressing pancreatic cancer cell lines AsPC-1, PANC-1, BxPC-3, and MiaPaCa-2; experiment: immunofluorescence binding of MSLN-pep to pancreatic cancer cell lines; format: cell-based, human; details: 10 μM and 25 μM MSLN-pep
# Source text: as §1
# [5] = tested on: AsPC-1 tumor; experiment: tumor homing of peptides in mice; format: in vivo, nude mice; details: TAMRA-labeled, intravenous, 6 hours circulation
# Protocol: Pancreatic cancer cell line AsPC-1 cells (1×10^7 cells) were implanted under the skin of nude mice, left until the tumor size reaches about 100 mm^3, and then intravenously injected with 100 μl of 1 mM peptides labeled with a TAMRA fluorescence reagent, followed by circulation for 6 hours. Tumors and organs (liver, lung, and kidney) were separated and treated with paraformaldehyde for fixation and preparation of cryosections. The prepared cryosections were observed under a fluorescence microscope.
# Pancreatic cancer cell line AsPC-1 cells (1×10^7 cells) were implanted under
# the skin of nude mice, left until the tumor size reached about 100 mm^3, and then intravenously injected with MSLN-pep labeled with the TAMRA fluorescence reagent and control peptide (Ctrl-pep), followed by circulation for 6 hours. The tumor and control organs were separated, and cryosections were prepared, followed by observation under a fluorescence microscope.
# [6] = in vitro; details: human
# Protocol: Pancreatic cancer cell line AsPC-1 cells (5×10^3 cells/well in 96-well plates) were cultured in 1% serum medium with various concentrations of MSLN-pep peptide that specifically binds to mesothelin, NSSSVDK control peptide (Ctrl-pep), R7-KLA peptide that induces apoptosis, Abraxane, gemcitabine, and PBS at 37° C. for 24 and 48 hours. Afterwards, CCK-8 Kit (Dojindo, Kumamoto, Japan) reagent was treated, and a reaction was carried out at 37° C. for 2 hours to evaluate cytotoxicity.
# To determine whether there is cytotoxicity when MSLN-pep binds specifically to mesothelin, the peptide was treated to the pancreatic cancer cell line AsPC-1 at concentrations of 0, 25, 50, 100, and 200 μM, and cell viability was checked for 24 and 48hours.
compound,measurement,setting,value
CC[C@H](C)[C@@H]1NC(=O)[C@H]([C@@H](C)O)NC(=O)[C@@H](N)CSSC[C@@H](C(=O)O)NC(=O)[C@H]([C@@H](C)O)NC(=O)[C@H](CC(C)C)NC(=O)[C@H](CO)NC(=O)[C@H](Cc2c[nH]c3ccccc23)NC(=O)[C@H](CC(C)C)NC1=O [MSLN-pep],specific binding (immunofluorescence),[1],bound only to the mesothelin-expressing portion
same,location of binding site relative to mesothelin expression,[2],binding took place at the same spot where the mesothelin is expressed
same,binding to mesothelin through phage ELISA and phage immunofluorescence staining,[3],binds to mesothelin in high degree
same,specific binding (immunofluorescence),[4],specific binding of MSLN-pep even at 10 μM with the further increase at 25 μM
same,targeting to control organs (fluorescence microscopy of cryosections),"[5]; liver, lungs, kidneys",barely observed
same,targeting to tumor tissue (fluorescence microscopy of cryosections),[5]; tumor tissue,observed at a higher level compared to the control
same,viability at 200 µM,[6],~80%
